Laboratory results published in patent US8129527B2, “Analogs of dehydrophenylahistins and their therapeutic use” (Nereus Pharmacuticals, Inc., priority 2006, dated 2012).
Read-outs that look alike come from different tables or passages of the source.

System: HT-29 human colon cells
Assay: Tumor cytotoxicity assay, resazurin fluorescence, 48 h (Example 6)
Assay type: cell-based
Settings: for EC50: Homo sapiens; for cytotoxic activity against HT-29 cells / activity compared with tBu-dehydroPLH: in words
[1] = HT-29, Table 3, read-out: EC50 (nM) HT-29
[2] = Table 7, electron-withdrawing group, proliferation of HT-29 cells, read-out: EC50
[3] = Table 8, electron-donating group, proliferation of HT-29 cells, read-out: EC50
[4] = Table 11, replacement with the heteroaryl ring, proliferation of HT-29 cells, read-out: EC50
[5] = HT-29, Table 5, synthetic potent dehydroPLH derivatives, read-out: EC50

CC(C)(C)c1[nH]cnc1/C=c1\[nH]c(=O)/c(=C/c2cc([N+](=O)[O-])ccc2Cl)[nH]c1=O [KPU-21, tBu-ΔPLH-2Cl-5-NO2]
EC50 [1]: 51 nM | EC50 [2]: 51 nM

CC(C)(C)c1[nH]cnc1/C=c1\[nH]c(=O)/c(=C/c2ccc3c(c2)OCO3)[nH]c1=O [KPU-22, tBu-ΔPLH-3,4-methylene-dioxy]
EC50 [1]: 82 nM | EC50 [3]: 82 nM

COc1cccc(/C=c2\[nH]c(=O)/c(=C/c3nc[nH]c3C(C)(C)C)[nH]c2=O)c1O [KPU-23, tBu-ΔPLH-2-OH-3-OMe (o-vanillin)]
EC50 [1]: 5870 nM | EC50 [3]: 5870 nM

COc1cccc2cc3c(=O)[nH]/c(=C\c4nc[nH]c4C(C)(C)C)c(=O)n3c12 [KPU-24, tBu-ΔPLH-cyclized-3-MeO]
EC50 [1]: 7040 nM | EC50 (Table 6, proliferation of HT-29 cells, read-out: EC50): 7040 nM

Cc1ccc(/C=c2\[nH]c(=O)/c(=C/c3nc[nH]c3C(C)(C)C)[nH]c2=O)s1 [KPU-27, tBu-ΔPLH-5-Me-2-thienyl]
EC50 [1]: 80 nM | EC50 [4]: 80 nM

Cc1ccsc1/C=c1\[nH]c(=O)/c(=C/c2nc[nH]c2C(C)(C)C)[nH]c1=O [KPU-29, tBu-ΔPLH-3-Me-2-thienyl]
EC50 [1]: 44 nM | EC50 [5]: 44 nM | cytotoxic activity against HT-29 cells: exhibited activity

CC(C)(C)c1[nH]cnc1/C=c1\[nH]c(=O)/c(=C/c2cccc3c2OCO3)[nH]c1=O [KPU-30, tBu-ΔPLH-2,3-methylendioxy]
EC50 [3]: 477 nM

Cc1cccc(/C=c2\[nH]c(=O)/c(=C/c3nc[nH]c3C(C)(C)C)[nH]c2=O)n1 [KPU-33, tBu-ΔPLH-3-Me-2-pyridyl]
EC50 [4]: > 20000 nM

Cc1[nH]cnc1/C=c1\[nH]c(=O)/c(=C/c2nc[nH]c2C(C)(C)C)[nH]c1=O [KPU-36, tBu-ΔPLH-5-Me-4-im]
EC50 [4]: 2790 nM

CC(C)(C)c1[nH]cnc1/C=c1\[nH]c(=O)/c(=C/c2ccc(C#N)cc2)[nH]c1=O [KPU-43, tBu-ΔPLH-p-CN]
EC50 [2]: > 20000 nM

COc1cc(OC)c(/C=c2\[nH]c(=O)/c(=C/c3nc[nH]c3C(C)(C)C)[nH]c2=O)c(OC)c1 [KPU-45, tBu-ΔPLH-2,4,6-TriOMe]
cytotoxic activity against HT-29 cells: also showed activity

CC(C)(C)c1[nH]cnc1/C=c1\[nH]c(=O)/c(=C/c2cc(Cl)ccc2[N+](=O)[O-])[nH]c1=O [KPU-52, tBu-ΔPLH-2-NO2-5-Cl]
EC50 [2]: 110 nM

COc1ccc(O)c(/C=c2\[nH]c(=O)/c(=C/c3nc[nH]c3C(C)(C)C)[nH]c2=O)c1 [KPU-54, tBu-ΔPLH-2-OH-5-OMe]
EC50 [3]: > 20000 nM

COc1ccc(/C=c2\[nH]c(=O)/c(=C/c3nc[nH]c3C(C)(C)C)[nH]c2=O)cc1O [KPU-57, tBu-delta-PLH-3-OH-4-OMe]
EC50 [3]: > 20000 nM

COc1ccc(/C=c2\[nH]c(=O)/c(=C/c3nc[nH]c3C(C)(C)C)[nH]c2=O)c(O)c1 [KPU-58, tBu-ΔPLH-2-OH-4-OMe]
EC50 [3]: > 20000 nM

CC(C)(C)c1[nH]cnc1/C=c1\[nH]c(=O)/c(=C/c2ccc(Cl)s2)[nH]c1=O [KPU-61, tBu-ΔPLH-5-Cl-2-thionyl]
EC50 (HT-29, Table 11, replacement with the heteroaryl ring, proliferation of HT-29 cells): 184 nM

Cn1cccc1/C=c1\[nH]c(=O)/c(=C/c2nc[nH]c2C(C)(C)C)[nH]c1=O [KPU-63, tBu-ΔPLH-N-Me-2-pyrrole]
EC50 [4]: 105 nM

CC(C)(C)c1[nH]cnc1/C=c1\[nH]c(=O)/c(=C/c2cccc(OC(F)(F)F)c2)[nH]c1=O [KPU-80, TBu-ΔPLH-m-OCF3]
EC50 [5]: 13 nM | activity compared with tBu-dehydroPLH: higher activity than tBu-dehydroPLH

COc1ccc(F)c(/C=c2\[nH]c(=O)/c(=C/c3nc[nH]c3C(C)(C)C)[nH]c2=O)c1 [KPU-81, TBu-ΔPLH-2-F-5-OMe]
EC50 [5]: 19 nM | activity compared with tBu-dehydroPLH: higher activity than tBu-dehydroPLH

Cc1cccc(/C=c2\[nH]c(=O)/c(=C/c3nc[nH]c3C(C)(C)C)[nH]c2=O)c1C [KPU-90, 3-{(Z)-1-[5-(tert-Butyl)-1H-4-imidazolyl]methylidene}-6-[(Z)-1-(2,3-dimethylphenyl)methylidene]-2,5-piperazinedione]
potency relative to dehydroPLH: 16 times | potency relative to tBu-dehydroPLH: 4 times | EC50 [5]: 3 nM | EC50 (HT-29, text to Table 5, most potent compound, read-out: EC50 value): 3 nM

CC(C)(C)c1[nH]cnc1/C=c1\[nH]c(=O)/c(=C/c2ccccc2)[nH]c1=O [tBu-dehydrophenylahistin, 3-Z-Benzylidene-6-(5″-tert-butyl-1H-imidazol-4″-Z-ylmethylene)-piperazine-2,5-dione]
greater cytotoxic activity in comparison with dehydrophenylahistin (Table 1 text): ~4 times
